According to publication PMC3961306, “Comparison of the Cancer Gene Targeting and Biochemical Selectivities of All Targeted Kinase Inhibitors Approved for Clinical Use” (PLoS ONE, 2014):
Like-named read-outs stand apart in the source and are kept apart here. Values belong to the compound of their own block, whether it stands above or below them.

Tested on: forty-four human cancer cell lines
Assay: Cell proliferation assay (ATPlite, 72 hours) in the 44 cell line Oncolines panel
Type: cell-based
Conditions: Homo sapiens

IC50 (769-P, cell line 769-P, read-out: cell panel IC50, 769-P): 4740 nM
IC50 (786-0, cell line 786-0, read-out: cell panel IC50, 786-0): 2210 nM
IC50 (A 172, read-out: cell panel IC50, A-172, cell line A-172): 987 nM
IC50 (A204, cell line A-204, read-out: cell panel IC50, A-204): 1420 nM
IC50 (A498, read-out: cell panel IC50, A-498, cell line A-498): 1700 nM
IC50 (A549, read-out: cell panel IC50, A-549, cell line A-549): 1180 nM
IC50 (A-375, cell line A375, read-out: cell panel IC50, A375): 3660 nM
IC50 (A-427, read-out: cell panel IC50, A-427, cell line A-427): 1820 nM
IC50 (ACHN, cell line ACHN, read-out: cell panel IC50, ACHN): 2450 nM
IC50 (AN3-CA, cell line AN3 CA, read-out: cell panel IC50, AN3 CA): 7340 nM
IC50 (AU565, read-out: cell panel IC50, AU-565, cell line AU-565): 1010 nM
IC50 (BT-20, cell line BT-20, read-out: cell panel IC50, BT-20): 6340 nM
IC50 (BT-549, read-out: cell panel IC50, BT-549, cell line BT-549): 1850 nM
IC50 (BXPC-3, cell line BxPC-3, read-out: cell panel IC50, BxPC-3): 5180 nM
IC50 (C-33-A, cell line C-33 A, read-out: cell panel IC50, C-33 A): 4610 nM
IC50 (CAL-27, cell line CAL 27, read-out: cell panel IC50, CAL 27): 4070 nM
IC50 (CCRF-CEM, cell line CCRF-CEM, read-out: cell panel IC50, CCRF-CEM): 15100 nM
IC50 (DLD-1, cell line DLD-1, read-out: cell panel IC50, DLD-1): 1030 nM
IC50 (FaDu, cell line FaDu, read-out: cell panel IC50, FaDu): 1130 nM
IC50 (HCT-15, cell line HCT-15, read-out: cell panel IC50, HCT-15): 1840 nM
IC50 (HCT-116, read-out: cell panel IC50, HCT-116, cell line HCT-116): 1260 nM
IC50 (Hs-578T, cell line Hs 578T, read-out: cell panel IC50, Hs 578T): 7950 nM
IC50 (Jurkat E6.1, cell line Jurkat E6.1, read-out: cell panel IC50, Jurkat E6.1): 3340 nM
IC50 (K562, read-out: cell panel IC50, K-562, cell line K-562): 5530 nM
IC50 (LS174T, read-out: cell panel IC50, LS 174T, cell line LS 174T): 4800 nM
IC50 (LoVo, cell line LoVo, read-out: cell panel IC50, LoVo): 3200 nM
IC50 (MG-63, cell line MG-63, read-out: cell panel IC50, MG-63): 3030 nM
IC50 (MOLT-4, cell line MOLT-4, read-out: cell panel IC50, MOLT-4): 2070 nM
IC50 (MeWo, cell line MeWo, read-out: cell panel IC50, MeWo): 4280 nM
IC50 (NCI-H82, cell line NCI-H82, read-out: cell panel IC50, NCI-H82): 1920 nM
IC50 (NCI-H460, cell line NCI-H460, read-out: cell panel IC50, NCI-H460): 1590 nM
IC50 (OVCAR-3, cell line OVCAR-3, read-out: cell panel IC50, OVCAR-3): 3460 nM
IC50 (RPMI-7951, cell line RPMI-7951, read-out: cell panel IC50, RPMI-7951): 1220 nM
IC50 (SHP77, cell line SHP-77, read-out: cell panel IC50, SHP-77): 22800 nM
IC50 (SK-N-AS, cell line SK-N-AS, read-out: cell panel IC50, SK-N-AS): 2580 nM
IC50 (SW48, cell line SW48, read-out: cell panel IC50, SW48): 1860 nM
IC50 (SW480, cell line SW480, read-out: cell panel IC50, SW480): 1730 nM
IC50 (SW-620, cell line SW620, read-out: cell panel IC50, SW620): 4200 nM
IC50 (U2OS, cell line U-2 OS, read-out: cell panel IC50, U-2 OS): 2460 nM
IC50 (U-87 MG, 72 h, U-87 MG cell line, ATPlite, 72 hours, read-out: IC50 in cell proliferation assay (table S5 cellpanel data)): 2460 nM
IC50 (cell line J82, read-out: cell panel IC50, J82): > 31600 nM
IC50 (cell line PA-1, read-out: cell panel IC50, PA-1): 814 nM
IC50 (cell line SJCRH30, read-out: cell panel IC50, SJCRH30): 7210 nM
IC50 (cell line SR, read-out: cell panel IC50, SR): 546 nM
SMILES: O=c1[nH]cc(F)c(=O)[nH]1 [5-fluorouracil]

SMILES: CNC(=O)c1ccccc1Sc1ccc2c(/C=C/c3ccccn3)n[nH]c2c1 [axitinib]
IC50 (4-4 cell, read-out: cell panel IC50, PA-1): 1290 nM
IC50 (A498, read-out: cell panel IC50, A-498): 3210 nM
IC50 (A-375, read-out: cell panel IC50, A375): 5650 nM
IC50 (HCT-116, read-out: cell panel IC50, HCT-116): 2290 nM
IC50 (SHP77, read-out: cell panel IC50, SHP-77): 5570 nM
